# ChEMBL document CHEMBL5036330, “Discovery of 8,9-seco-ent-Kaurane Diterpenoids as Potential Leads for the Treatment of Triple-Negative Breast Cancer” (J Med Chem, 2021)
# Calls of active or inactive are those of the source. The rule behind the calls is not given here.
# Legend:
# MCF-10A = assay: Cytotoxicity against human MCF-10A cells assessed as reduction in cell viability incubated for 96 hrs by MTT method; type: cell-based
# MDA-MB-231 [1] = assay: Induction of apoptosis in human MDA-MB-231 cells assessed as early apoptotic cells at 2 uM measured after 24 hrs by Annexin V/Propidium iodide stain based Flow cytometry (reference value: 3.34%); type: functional
# MDA-MB-468 [2] = assay: Induction of apoptosis in human MDA-MB-468 cells assessed as late apoptotic cells at 1 uM measured after 24 hrs by Annexin V/Propidium iodide stain based Flow cytometry (reference value: 3.98%); type: functional
# MDA-MB-468 [3] = assay: Induction of apoptosis in human MDA-MB-468 cells assessed as early apoptotic cells at 2 uM measured after 24 hrs by Annexin V/Propidium iodide stain based Flow cytometry (reference value: 7.98%); type: functional
# MDA-MB-468 [4] = assay: Anticancer activity in human MDA-MB-468 cells xenografted mouse model assessed as tumor growth inhibition at 5 mg/kg, ip treated for 33 days relative to control; type: functional, organism-based; conditions: time 33.0 day
# MDA-MB-231 [5] = assay: Induction of cell cycle arrest in human MDA-MB-231 cells assessed as accumulation of cells at G1 phase at 2 uM measured after 24 hrs by flow cytometry (reference value: 47.7%); type: functional
# MDA-MB-231 [6] = assay: Induction of cell cycle arrest in human MDA-MB-231 cells assessed as accumulation of cells at G2 phase at 5 uM measured after 24 hrs by flow cytometry (reference value: 20.2%); type: functional
# MDA-MB-468 [7] = assay: Induction of cell cycle arrest in human MDA-MB-468 cells assessed as accumulation of cells at G2 phase at 1 uM measured after 24 hrs by flow cytometry (reference value: 26.5%); type: functional
# MDA-MB-468 [8] = assay: Induction of cell cycle arrest in human MDA-MB-468 cells assessed as accumulation of cells at S phase at 2 uM measured after 24 hrs by flow cytometry (reference value: 46.9%); type: functional
# MDA-MB-231 [9] = assay: Induction of mitochondrial depolarization in human MDA-MB-231 cells assessed as monomers at 1 uM in dark by JC10 staining based fluorescence microscopy (reference value: 5.6%); type: functional
# MDA-MB-231 [10] = assay: Induction of mitochondrial depolarization in human MDA-MB-231 cells assessed as aggregates at 2 uM in dark by JC10 staining based fluorescence microscopy (reference value: 94.4%); type: functional
# MDA-MB-231 [11] = assay: Induction of mitochondrial depolarization in human MDA-MB-231 cells assessed as monomers at 2 uM in dark by JC10 staining based fluorescence microscopy (reference value: 5.6%); type: functional
# MDA-MB-468 [12] = assay: Induction of mitochondrial depolarization in human MDA-MB-468 cells assessed as aggregates at 1 uM in dark by JC10 staining based fluorescence microscopy (reference value: 91.6%); type: functional
# MDA-MB-468 [13] = assay: Induction of mitochondrial depolarization in human MDA-MB-468 cells assessed as aggregates at 2 uM in dark by JC10 staining based fluorescence microscopy (reference value: 91.6%); type: functional
# MDA-MB-468 [14] = assay: Induction of mitochondrial depolarization in human MDA-MB-468 cells assessed as monomers at 5 uM in dark by JC10 staining based fluorescence microscopy (reference value: 8.4%); type: functional
# MDA-MB-231 [15] = assay: Induction of apoptosis in human MDA-MB-231 cells assessed as increase in cleaved caspase 3 at 1 to 5 uM measured after 24 hrs by Western blot analysis; type: functional, cell-based; conditions: dose 1-5 µM
# MDA-MB-468 [16] = assay: Induction of apoptosis in human MDA-MB-468 cells assessed as decrease in Bcl2/Bax ratio at 1 to 5 uM measured after 24 hrs by Western blot analysis; type: functional, cell-based; conditions: dose 1-5 µM
# MDA-MB-231 [17] = assay: Induction of autophagy in human MDA-MB-231 cells assessed as increase in ATG5 expression at 1 to 5 uM incubated for 24 hrs by Western blot analysis; type: functional, cell-based; conditions: dose 1-5 µM
# MDA-MB-231 [18] = assay: Induction of autophagy in human MDA-MB-231 cells assessed as increase in LC3-II expression at 1 to 5 uM incubated for 24 hrs by Western blot analysis; type: functional, cell-based; conditions: dose 1-5 µM
# MDA-MB-468 [19] = assay: Induction of autophagy in human MDA-MB-468 cells assessed as increase in ATG7 expression at 1 to 5 uM incubated for 24 hrs by Western blot analysis; type: functional, cell-based; conditions: dose 1-5 µM
# MDA-MB-468 [20] = assay: Induction of autophagy in human MDA-MB-468 cells assessed as increase in LC3-II expression at 1 to 5 uM incubated for 24 hrs by Western blot analysis; type: functional, cell-based; conditions: dose 1-5 µM
# MDA-MB-231 [21] = assay: Antiinvasive activity against in human MDA-MB-231 cells measured at 0.2 uM upto 72 hrs by transwell invasion assay relative to control; type: functional; conditions: MDA-MB-231, 72 h, time hrs <=72
# MDA-MB-231 [22] = assay: Antiinvasive activity against in human MDA-MB-231 cells assessed as reduction in MMP2 expression measured upto 72 hrs by Western blot analysis; type: functional, cell-based; conditions: dose 0.1-0.2 µM, time hrs <=72
# MDA-MB-231 [23] = assay: Antiinvasive activity against in human MDA-MB-231 cells assessed as reduction in MMP9 expression measured upto 72 hrs by Western blot analysis; type: functional, cell-based; conditions: dose 0.1-0.2 µM, time hrs <=72
# MDA-MB-231 [24] = assay: Inhibition of Akt phosphorylation in human MDA-MB-231 cells measured after 24 hrs by Western blot analysis; type: cell-based
# [25] = molecular target: Serine/threonine-protein kinase mTOR (Homo sapiens) (UniProt P42345); assay: Inhibition of mTOR phosphorylation in human MDA-MB-468 cells measured after 24 hrs by Western blot analysis; type: cell-based; conditions: dose 1-5 µM
# MDA-MB-468 [26] = assay: Inhibition of PI3K phosphorylation in human MDA-MB-468 cells measured at 1 to 5 uM after 24 hrs by Western blot analysis; type: cell-based; conditions: dose 1-5 µM
# Homo sapiens = species on record: Homo sapiens; assay: Inhibition of PI3K (unknown origin) by ADP-Glo assay
# MDA-MB-468 [27] = assay: Anticancer activity in human MDA-MB-468 cells xenografted mouse model assessed as reduction in tumor volume at 10 mg/kg, ip treated for 33 days; type: functional; conditions: MDA-MB-468, ip, 792 h, time 33 day
# [28] = Toxicity in NOD/SCID mouse assessed as cytotoxicity in heart at 10 mg/kg, ip treated for 33 days by H&E staining analysis; type: organism-based; conditions: in vivo, 792 h, time 33 day
# [29] = Toxicity in NOD/SCID mouse assessed as cytotoxicity in liver at 10 mg/kg, ip treated for 33 days by H&E staining analysis; type: organism-based; conditions: in vivo, 792 h, time 33 day
# [30] = Toxicity in NOD/SCID mouse assessed as cytotoxicity in lung at 10 mg/kg, ip treated for 33 days by H&E staining analysis; type: organism-based; conditions: in vivo, 792 h, time 33 day
# MDA-MB-231 [31] = assay: Antitumor activity against human MDA-MB-231 cells xenografted in NOD/SCID mouse assessed as decrease in CD31 expression in tumor tissue at 5 to 10 mg/kg, ip treated for 33 days by immunohistochemical analysis; type: functional, organism-based; conditions: dose 5-10 mg/kg, time 33.0 day
# MCF7 = assay: Cytotoxicity against human MCF7 cells assessed as reduction in cell viability incubated for 96 hrs by MTT method; type: functional, cell-based; conditions: MCF7, 96 h
# [32] = Selectivity index, ratio of IC50 for human MCF-10A cells to IC50 for human MBA-MB-231 cells; type: functional
# [33] = Selectivity index, ratio of IC50 for human LO2 cells to IC50 for human MBA-MB-231 cells; type: functional
structure (smiles),measurement,setting,value
C=C1C(=O)C2=C[C@H]1CCC(=O)[C@]1(C)[C@H](O)CCC(C)(C)[C@H]1C[C@H]2O,IC50,MCF-10A,1050 nM
same,Activity,MDA-MB-231 [1],8.05%
same,Activity,MDA-MB-468 [2],10.1%
same,Activity,MDA-MB-468 [3],35.5%
same,Activity,MDA-MB-468 [4],Active
same,Activity,MDA-MB-231 [5],33.8%
same,Activity,MDA-MB-231 [6],37.4%
same,Activity,MDA-MB-468 [7],57.9%
same,Activity,MDA-MB-468 [8],27.6%
same,Activity,MDA-MB-231 [9],18.9%
same,Activity,MDA-MB-231 [10],56.9%
same,Activity,MDA-MB-231 [11],43.1%
same,Activity,MDA-MB-468 [12],61.6%
same,Activity,MDA-MB-468 [13],21.5%
same,Activity,MDA-MB-468 [14],86.6%
same,Activity,MDA-MB-231 [15],Active
same,Activity,MDA-MB-468 [16],Active
same,Activity,MDA-MB-231 [17],Active
same,Activity,MDA-MB-231 [18],Active
same,Activity,MDA-MB-468 [19],Active
same,Activity,MDA-MB-468 [20],Active
same,inhibition at 0.2 µM,MDA-MB-231 [21],80%
same,Activity,MDA-MB-231 [22],Active
same,Activity,MDA-MB-231 [23],Active
same,inhibition,MDA-MB-231 [24],Active
same,inhibition,[25],Active
same,inhibition,MDA-MB-468 [26],inactive
same,inhibition,Homo sapiens,inactive
same,inhibition in vivo at 10 mg/kg,MDA-MB-468 [27],44.8%
same,Activity,[28],Non-Toxic
same,Activity,[29],Non-Toxic
same,Activity,[30],Non-Toxic
same,Activity,MDA-MB-231 [31],Active
same,IC50,MCF7,113 nM
same,Selectivity Index,[32],14
same,Selectivity Index,[33],>66.7
